From PubChem BioAssay (NCI)
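Compound exposure: 48 hours, 5 concentrations, 96-well plates. TGI: total growth inhibition.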

Legend:
Assay in all cases: DTP human tumour cell line panel, 48 h
SK-MEL-2 melanoma = tested on: SK-MEL-2 melanoma
HCT-116 colon = tested on: HCT-116 colon
K-562 leukemia = tested on: K-562 leukemia
TK-10 renal = tested on: TK-10 renal
EKVX NSCLC = tested on: EKVX NSCLC
OVCAR-5 ovarian = tested on: OVCAR-5 ovarian
UO-31 renal = tested on: UO-31 renal
OVCAR-4 ovarian = tested on: OVCAR-4 ovarian
CCRF-CEM leukemia = tested on: CCRF-CEM leukemia
SK-MEL-28 melanoma = tested on: SK-MEL-28 melanoma
UACC-257 melanoma = tested on: UACC-257 melanoma
SNB-75 CNS = tested on: SNB-75 CNS
SNB-19 CNS = tested on: SNB-19 CNS
CAKI-1 renal = tested on: CAKI-1 renal
SF-539 CNS = tested on: SF-539 CNS
SK-OV-3 ovarian = tested on: SK-OV-3 ovarian
NCI-H522 lung = tested on: NCI-H522 lung
KM12 colon = tested on: KM12 colon
SK-MEL-5 melanoma = tested on: SK-MEL-5 melanoma
MALME-3M melanoma = tested on: MALME-3M melanoma

| Compound | TGI (SK-MEL-2 melanoma) | TGI (HCT-116 colon) | TGI (K-562 leukemia) | TGI (TK-10 renal) | TGI (EKVX NSCLC) | TGI (OVCAR-5 ovarian) | TGI (UO-31 renal) | TGI (OVCAR-4 ovarian) | TGI (CCRF-CEM leukemia) | TGI (SK-MEL-28 melanoma) | TGI (UACC-257 melanoma) | TGI (SNB-75 CNS) | TGI (SNB-19 CNS) | TGI (CAKI-1 renal) | TGI (SF-539 CNS) | TGI (SK-OV-3 ovarian) | TGI (NCI-H522 lung) | TGI (KM12 colon) | TGI (SK-MEL-5 melanoma) | TGI (MALME-3M melanoma) |
| --- | --- | --- | --- | --- | --- | --- | --- | --- | --- | --- | --- | --- | --- | --- | --- | --- | --- | --- | --- | --- |
| CCCCCC(O)[C@H]1C(=O)C[C@@H](O[Si](C)(C)C(C)(C)C)[C@@H]1/C=C/CCOCc1ccccc1 (stereo not given in full) | 31.2 µM | > 45.5 µM | > 59.4 µM | 28.5 µM | 35.2 µM | 36.6 µM | 27.5 µM | 34.1 µM | > 100 µM | 31 µM | 26.4 µM | 32.1 µM | 28.5 µM | 29.9 µM | 29.5 µM | 31.1 µM | 15 µM | 17.2 µM | 37.9 µM | 28.8 µM |
| CC1(C)C=C(/C=N/Nc2ccc([N+](=O)[O-])cc2)C(C#N)=C(O)C1(C#N)C#N | > 100 µM | > 100 µM | > 100 µM | > 100 µM | > 100 µM | > 100 µM | > 100 µM | > 100 µM | > 100 µM | > 100 µM | > 100 µM | > 100 µM | > 100 µM | > 100 µM | > 100 µM | > 100 µM | > 100 µM | > 100 µM | > 100 µM | > 100 µM |
| O=C(NCc1ccccc1)c1cc2cc(O)c(O)cc2cn1 | 97.6 µM | > 100 µM | > 100 µM | > 100 µM | > 100 µM | 79.6 µM | 56.6 µM | > 100 µM | > 100 µM | > 100 µM | 73.1 µM | 84.5 µM | > 100 µM | 98.5 µM | > 100 µM | > 100 µM | > 100 µM | > 100 µM | 50.9 µM | > 100 µM |
| O=C1c2ccccc2-c2nc3ccc(O)cc3n21 | > 100 µM | > 100 µM | > 100 µM | > 100 µM | > 100 µM | > 100 µM | > 100 µM | > 100 µM | > 100 µM | > 100 µM | > 100 µM | > 100 µM | > 100 µM | > 100 µM | > 100 µM | > 100 µM | > 100 µM | > 100 µM | > 100 µM | > 100 µM |
| COC(=O)[C@@H]1C[C@H]([Se]c2ccccc2)CN1S(=O)(=O)c1ccc(C)cc1 | > 100 µM | > 100 µM | > 100 µM | > 100 µM | > 100 µM | > 100 µM | > 100 µM | > 100 µM | > 100 µM | > 100 µM | > 100 µM | 44.5 µM | > 100 µM | > 100 µM | > 100 µM | > 100 µM | > 100 µM | > 100 µM | > 100 µM | > 100 µM |
| CCCN1CN(C(C(=O)N[C@@H]2C(=O)N3C2SC(C)(C)C3C(=O)O)c2ccccc2)CSC1=S (stereo not given in full) | > 100 µM | > 100 µM | > 100 µM | > 100 µM | > 100 µM | > 100 µM | > 100 µM | > 100 µM | > 100 µM | > 100 µM | > 100 µM | > 100 µM | > 100 µM | > 100 µM | > 100 µM | > 100 µM | 81.5 µM | > 100 µM | > 100 µM | > 100 µM |
| N#Cc1c(-c2ccccc2)c(N=Nc2ccc(F)cc2)c(=O)n2c1[nH]c1ccccc12 | > 100 µM | 14.2 µM | 17.9 µM | 25.8 µM | 41.3 µM | 50.5 µM | 20.6 µM | 31.5 µM | 7.57 µM | > 100 µM | > 100 µM | 39.4 µM | 33.5 µM | 16.4 µM | 32.2 µM | 31.5 µM | 14.7 µM | 65 µM | 4.94 µM | 72.5 µM |
| CC1(C)CC[C@]2(C(=O)O)CC[C@]3(C)C(=CC[C@@H]4[C@@]5(C)C[C@H](O)[C@H](O)[C@@](C)(CO)C5=CC[C@]43C)[C@@H]2C1 | > 100 µM | > 100 µM | > 100 µM | > 100 µM | > 100 µM | > 100 µM | > 100 µM | 68.5 µM | > 100 µM | > 100 µM | > 100 µM | > 100 µM | > 100 µM | > 100 µM | > 100 µM | > 100 µM | > 100 µM | > 100 µM | > 100 µM | > 100 µM |
| CC(=O)CCNc1ccc(-c2cc(-c3ccc(N(C)C)cc3)nc3ccc4ccccc4c23)cc1 | > 100 µM | > 100 µM | > 100 µM | > 100 µM | > 100 µM | > 100 µM | > 100 µM | > 100 µM | > 100 µM | > 100 µM | > 100 µM | > 100 µM | > 100 µM | > 100 µM | > 100 µM | > 100 µM | > 100 µM | > 100 µM | > 100 µM | > 100 µM |
| COC(=O)C1Cc2cccc(C)c2C1 (stereo not given) | > 100 µM | > 100 µM | > 100 µM | > 100 µM | > 100 µM | > 100 µM | > 100 µM | > 100 µM | > 100 µM | > 100 µM | > 100 µM | > 100 µM | > 100 µM | > 100 µM | > 100 µM | > 100 µM | > 100 µM | > 100 µM | > 100 µM | > 100 µM |
